Measured values reported in patent US10584159B2, “Renilla based biosensors for monitoring biomolecule localization and trafficking in cells” (The Royal Institution for the Advancement of …, priority 2014, dated 2020).
No end group written: not given here.

Biological target: T1, AT1R (Homo sapiens, UniProt P30556)
T1 construct: expressed in transfected cells; host or cells: HEK293SL
T1 sequence (P30556 1-359): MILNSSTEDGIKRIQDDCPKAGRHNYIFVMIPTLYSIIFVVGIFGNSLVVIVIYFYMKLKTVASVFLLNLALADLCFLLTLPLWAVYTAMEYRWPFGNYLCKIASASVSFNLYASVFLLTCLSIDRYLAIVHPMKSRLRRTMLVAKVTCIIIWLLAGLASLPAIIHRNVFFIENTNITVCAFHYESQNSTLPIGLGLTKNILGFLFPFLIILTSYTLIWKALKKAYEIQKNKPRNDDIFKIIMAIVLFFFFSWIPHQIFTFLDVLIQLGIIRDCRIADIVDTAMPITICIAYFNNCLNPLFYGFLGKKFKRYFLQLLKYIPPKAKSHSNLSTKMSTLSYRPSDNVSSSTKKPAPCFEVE
Assay: β-arrestin2 targeting to endosomes BRET (AT1R/βarr2-RlucII/rGFP-endofinFYVE)
Format: cell-based
Conditions: 40 min
Description: BRET measurements for FIGS. 1B to 9D, 25D to 25F. The following day of transfection, cells were detached and replated onto poly-ornithine coated white 96-well plate at a density of 25,000 cells per well. The next day, cells were washed once with pre-warmed Tyrode's buffer (140 mM NaCl, 2.7 mM KCl, 1 mM CaCl2, 12 mM NaHCO3, 5.6 mM D-glucose, 0.5 mM MgCl2, 0.37 mM NaH2PO4, 25 mM HEPES, pH 7.4), and then stimulated with either various concentrations of ligands in Tyrode's buffer for the indicated time, or single concentration of ligands for various times at 37° C. For recycling experiment, after stimulating the cells with the ligands for 30 min at 37° C., they were washed either three times with ice-cold Tyrode's buffer or once with Tyrode's buffer/three times with acid (50 mM sodium citrate, pH 4.0)/two times with Tyrode's buffer. All the washing steps were performed on ice. Cells were then further incubated with Tyrode's buffer at 37° C. in a water bath for 45 min. The cell-permeable substrate, coelenterazine 400a was added at a final concentration of 5 μM in Tyrode's buffer 3-4 min before BRET measurements. Measurements were performed by using Synergy2 (BioTek®) microplate reader with a filter set of 410±80 nm and 515±30 nm for detecting the RlucII Renilla luciferase (donor) and GFP10 or rGFP (acceptor) light emissions, respectively. The BRET signal was determined by calculating the ratio of the light intensity emitted by the GFP10 or rGFP over the light intensity emitted by the RlucII. All the BRET measurements were performed in triplicate at 37° C.

DRVYVHPG [DVG, [Asp^1,Val^5, Gly^8]-AngII]
β-arrestin2 trafficking to endosomes with receptors, compared to AngII: weakly promoted
